Test results reported in patent US7446079B2, “Perfumes for rinse-off systems” (Givaudan Fragrances Corporation, priority 2005, dated 2008).
Several values for one entry are separate records, joined by “and”; a condition that tells them apart may be missing. Equal entries are not always repeated. Where two headings read alike, the source gives them in different places.

Assays:
[1] = in water, cited from earlier work; for exp ODT (ppb) water: experimental values from the Booleans database
[2] = GC-MS headspace release profile of Tropical Fruit perfume in shampoo, 1/100 dilution in water; format: physicochemical
Experimental: A 10 gram sample of formulation and fragrance was added to an empty 1000 ml pyrex beaker. This beaker was then filled with 1000 ml of 120 F tap water. Beaker with diluted shampoo sample was then immediately placed into a semi-enclosed plexiglass chamber.
Headspace Sampling: Once beaker was placed into chamber a Carboxan SPME field fiber was held at the top-side opening of the chamber over the beaker containing the sample. […] […] Top of plexiglass chamber was held open for entire 5 minutes of headspace sampling.

CCOC(=O)CC1(C)OCCO1 [FRUCTONE]
ODT (ppb) ([1]; Table 9): less than 50 ppb | ODT (ppb) ([1]; Table 11): less than 50 ppb | ODT (ppb) ([1]; Table 13): less than 50 ppb | GC Abundance ([2]; headspace at 20 seconds): 3000 | GC Abundance ([2]; headspace at 30 seconds): 5000 | GC Abundance ([2]; headspace at 40 seconds): 5000 | GC Abundance ([2]; headspace at 50 seconds): 5000

C=CC(C)(O)CCC=C(C)CC (mixture of isomers) [ETHYL LINALOOL]
GC Abundance ([2]; headspace at 20 seconds): 5000 | GC Abundance ([2]; headspace at 30 seconds): 10000 | GC Abundance ([2]; headspace at 40 seconds): 10000 | GC Abundance ([2]; headspace at 50 seconds): 10000

VERTOFIX COEUR
GC Abundance ([2]; headspace at 50 seconds): 50

CCCCCOC(=O)CCC [Pentyl butyrate]
exp ODT (ppb) water [1]: 44-87 ppb

CCC=C(C)C(O)CCCCC (stereo not shown) [UNDECAVERTOL, 4-Methyl-3-decen-5-ol]
GC Abundance ([2]; headspace at 40 seconds): 10000 | GC Abundance ([2]; headspace at 50 seconds): 10000

C=CC(C)CCCC(C)(C)O (stereo not shown) [DIHYDROMYRCENOL]
GC Abundance ([2]; headspace at 10 seconds): 500 | GC Abundance ([2]; headspace at 20 seconds): 15000 | GC Abundance ([2]; headspace at 30 seconds): 15000 | GC Abundance ([2]; headspace at 40 seconds): 15000 | GC Abundance ([2]; headspace at 50 seconds): 15000

CC(C=O)Cc1ccc(C(C)(C)C)cc1 (stereo not shown) [LILIAL]
ODT (ppb) ([1]; Table 9): less than 50 ppb | ODT (ppb) ([1]; Table 11): less than 50 ppb | ODT (ppb) ([1]; Table 13): less than 50 ppb

CC(C)=CCCC(C)CCCC(C)C=O (stereo not shown) [ADOXAL, 2,6,10-Trimethyl-9-undecenal]
GC Abundance ([2]; headspace at 40 seconds): 300 | GC Abundance ([2]; headspace at 50 seconds): 3000

CCCCCC1CCC(=O)O1 (stereo not shown) [ALDEHYDE C-18]
GC Abundance ([2]; headspace at 20 seconds): 2000 | GC Abundance ([2]; headspace at 30 seconds): 2000 | GC Abundance ([2]; headspace at 40 seconds): 4000 | GC Abundance ([2]; headspace at 50 seconds): 4000

CCC(C)(O)CCC=C(C)C (stereo not shown) [DIHYDROLINALOOL]
GC Abundance ([2]; headspace at 20 seconds): 3000 | GC Abundance ([2]; headspace at 30 seconds): 3000 | GC Abundance ([2]; headspace at 40 seconds): 3000 | GC Abundance ([2]; headspace at 50 seconds): 3000

CC1OC(C)C2Cc3ccccc3C2O1 (stereo not shown) [MAGNOLAN/CORPS 719]
GC Abundance ([2]; headspace at 40 seconds): 1000 | GC Abundance ([2]; headspace at 50 seconds): 3000

CC(C)C(=O)OCCOc1ccccc1 [PHENOXY ETHYL ISOBUTYRATE]
ODT (ppb) ([1]; Table 9): less than 50 ppb | ODT (ppb) ([1]; Table 11): less than 50 ppb | ODT (ppb) ([1]; Table 13): less than 50 ppb

CC/C=C\CCO [CIS-3-HEXEN-1-OL]
GC Abundance ([2]; headspace at 20 seconds): 14000 | GC Abundance ([2]; headspace at 30 seconds): 14000 | GC Abundance ([2]; headspace at 40 seconds): 14000 | GC Abundance ([2]; headspace at 50 seconds): 14000

CCCCOC(C)=O [Butyl acetate]
exp ODT (ppb) water [1]: 44-88 ppb

CC(=O)OCc1ccccc1 [BENZYL ACETATE]
GC Abundance ([2]; headspace at 20 seconds): 12000 | GC Abundance ([2]; headspace at 30 seconds): 17000 | GC Abundance ([2]; headspace at 40 seconds): 18000 | GC Abundance ([2]; headspace at 50 seconds): 18000

CC1=CCC(/C=C\C(C)C(C)O)C1(C)C (stereo not shown) [EBANOL]
ODT (ppb) ([1]; Table 9): less than 50 ppb | ODT (ppb) ([1]; Table 11): less than 50 ppb | ODT (ppb) ([1]; Table 13): less than 50 ppb

OCc1ccccc1 [BENZYL ALCOHOL]
GC Abundance ([2]; headspace at 40 seconds): 50 | GC Abundance ([2]; headspace at 50 seconds): 100

CC(=O)C=CC1C(C)=CCCC1(C)C (stereo not drawn) [alpha ionone, 4-(2,2,6-Trimethyl-2-cyclohexen-1-yl)-3-buten-2-one]
exp ODT (ppb) water [1]: 0.4-10 ppb

C=CCOC(=O)CCCCCC [ALLYL HEPTOATE]
GC Abundance ([2]; headspace at 20 seconds): 4000 | GC Abundance ([2]; headspace at 30 seconds): 10000 | GC Abundance ([2]; headspace at 40 seconds): 12000 | GC Abundance ([2]; headspace at 50 seconds): 12000

CC=Cc1ccc(O)c(OC)c1 [1-Hydroxy-2-methoxy-4-propenylbenzene]
exp ODT (ppb) water [1]: 30-40 ppb

O=C1CCCCCCCCCCCC(=O)OCCO1 [ETHYLENE BRASSYLATE]
GC Abundance ([2]; headspace at 50 seconds): 20

CC/C=C\CCOC(=O)c1ccccc1O [CIS-3-HEXENYL SALICYLATE]
ODT (ppb) ([1]; Table 9): less than 50 ppb | ODT (ppb) ([1]; Table 11): less than 50 ppb | ODT (ppb) ([1]; Table 13): less than 50 ppb

CC(=O)OC1CCC(C(C)(C)C)CC1 (stereo not shown) [VERTENEX HC]
GC Abundance ([2]; headspace at 30 seconds): 2000 | GC Abundance ([2]; headspace at 40 seconds): 8000 | GC Abundance ([2]; headspace at 50 seconds): 10000

OXANONE CRYSTALS
GC Abundance ([2]; headspace at 50 seconds): 70

CC/C(=C\CC1CC=C(C)C1(C)C)CO (stereo not shown) [BACDANOL]
GC Abundance ([2]; headspace at 40 seconds): 100 | GC Abundance ([2]; headspace at 50 seconds): 5000

C=C(C)[C@H]1CC=C(C)CC1 [d-LIMONENE, d-1-Methyl-4-isopropenyl-1-cyclohexene]
GC Abundance ([2]; headspace at 5 seconds, Tropical Fruit perfume 1% in shampoo): 7000 | GC Abundance ([2]; headspace at 10 seconds): 7000 | GC Abundance ([2]; headspace at 20 seconds): 7000 | GC Abundance ([2]; headspace at 30 seconds): 7000 | GC Abundance ([2]; headspace at 40 seconds): 5000 | GC Abundance ([2]; headspace at 50 seconds): 4000

CC(=O)OC/C=C(/C)CCC=C(C)C [NERYL ACETATE]
ODT (ppb) ([1]; Table 9): less than 50 ppb | ODT (ppb) ([1]; Table 11): less than 50 ppb | ODT (ppb) ([1]; Table 13): less than 50 ppb

CC1(C)CCC[C@]2(C)[C@H]3CCO[C@]3(C)CC[C@@H]12 [AMBROXAN]
GC Abundance ([2]; headspace at 50 seconds): 1000

C=CCOC(=O)COC1CCCCC1 [CYCLOGALBANATE]
ODT (ppb) ([1]; Table 9): less than 50 ppb | ODT (ppb) ([1]; Table 11): less than 50 ppb | ODT (ppb) ([1]; Table 13): less than 50 ppb

CCOC(=O)C1OC1(C)c1ccccc1 (stereo not shown) [Ethyl 2,3-epoxy-3-methyl-3-phenylpropionate]
exp ODT (ppb) water [1]: 25 ppb

CCOC(=O)CC(C)=O [ETHYL ACETOACETATE]
ODT (ppb) ([1]; Table 9): less than 50 ppb | ODT (ppb) ([1]; Table 11): less than 50 ppb | ODT (ppb) ([1]; Table 13): less than 50 ppb

CCCCCOC(C)=O [Pentyl Acetate]
exp ODT (ppb) water [1]: 43 ppb

CC(C)c1cccc(C(C)CC=O)c1 (stereo not shown) [FLORHYDRAL]
GC Abundance ([2]; headspace at 40 seconds): 9000 | GC Abundance ([2]; headspace at 50 seconds): 10000

CC(C)CC1CC(C)(O)CCO1 (stereo not shown) [FLOROL]
GC Abundance ([2]; headspace at 40 seconds): 10000 | GC Abundance ([2]; headspace at 50 seconds): 15000

COC(=O)c1c(C)cc(O)c(C)c1O [METHYL ATRATATE]
GC Abundance ([2]; headspace at 50 seconds): 50

CC/C=C\CCOC(=O)OC [LIFFAROME]
GC Abundance ([2]; headspace at 20 seconds): 3000 | GC Abundance ([2]; headspace at 30 seconds): 3000 | GC Abundance ([2]; headspace at 40 seconds): 3000 | GC Abundance ([2]; headspace at 50 seconds): 3000

CC(C=O)Cc1ccc2c(c1)OCO2 (stereo not shown) [HELIONAL]
GC Abundance ([2]; headspace at 40 seconds): 500 | GC Abundance ([2]; headspace at 50 seconds): 5000

C=C(C)C1CC=C(C)C(=O)C1 (stereo not shown) [I-1-Methyl-4-isopropenyl-6-cyclohexen-2-one]
exp ODT (ppb) water [1]: 50 ppb

CCCCCCOC(C)=O [HEXYL ACETATE]
ODT (ppb) ([1]; Table 9): less than 50 ppb | ODT (ppb) ([1]; Table 11): less than 50 ppb | ODT (ppb) ([1]; Table 13): less than 50 ppb

CC(C)=CCCC(C)CCO (stereo not shown) [CITRONELLOL AJ, FCC, CITRONELLOL]
GC Abundance ([2]; headspace at 20 seconds): 7000 | GC Abundance ([2]; headspace at 30 seconds): 7000 | GC Abundance ([2]; headspace at 40 seconds): 7000 | GC Abundance ([2]; headspace at 50 seconds): 7000

COc1cc(C=O)ccc1O [4-Hydroxy-3-methoxybenzaldehyde]
exp ODT (ppb) water [1]: 25-58 ppb and 20-200 ppb

CC(C)=CCCC(C)CC#N (stereo not shown) [CITRONELLYL NITRILE]
ODT (ppb) ([1]; Table 9): less than 50 ppb | ODT (ppb) ([1]; Table 11): less than 50 ppb | ODT (ppb) ([1]; Table 13): less than 50 ppb

CCC(=O)OCc1ccccc1 [BENZYL PROPIONATE]
GC Abundance ([2]; headspace at 20 seconds): 2000 | GC Abundance ([2]; headspace at 30 seconds): 6000 | GC Abundance ([2]; headspace at 40 seconds): 6000 | GC Abundance ([2]; headspace at 50 seconds): 6000

CCCCCCCC=O [1-Octanal]
exp ODT (ppb) water [1]: 30 ppb

O=C1CCCCCCCCCCCCCCO1 [EXALTOLIDE TOTAL]
GC Abundance ([2]; headspace at 50 seconds): 50

CC1=CCC(CCC(C)C(C)O)C1(C)C (stereo not shown) [SANDALORE]
GC Abundance ([2]; headspace at 50 seconds): 2000

Cc1ccc(C(C)C)c(O)c1 [5-Methyl-2-isopropylphenol]
exp ODT (ppb) water [1]: 400 ppb

CCC(=O)OC/C=C(\C)CCC=C(C)C [trans-3,7-Dimethyl-2,6-octadien-1-yl propanoate]
exp ODT (ppb) water [1]: 10 ppb

CC(C)(O)CCCC1=CCC(C=O)CC1 (stereo not shown) [LYRAL]
ODT (ppb) ([1]; Table 13): less than 50 ppb

CC(=O)OC(C)(C)Cc1ccccc1 [DIMETHYL BENZYL CARBINYL ACETATE]
GC Abundance ([2]; headspace at 30 seconds): 2000 | GC Abundance ([2]; headspace at 40 seconds): 8000 | GC Abundance ([2]; headspace at 50 seconds): 8000

CC(=O)OC(C)(C)C1CC=C(C)CC1 (stereo not shown) [TERPINYL ACETATE]
GC Abundance ([2]; headspace at 30 seconds): 1000 | GC Abundance ([2]; headspace at 40 seconds): 9000 | GC Abundance ([2]; headspace at 50 seconds): 9000

Cc1ccc2c(c1)OCC(=O)CO2 [CALONE]
GC Abundance ([2]; headspace at 50 seconds): 1000

CC(C)=CCCC(C)C=O (stereo not shown) [melonal, 2,6-Dimethyl-5-heptenal]
exp ODT (ppb) water [1]: 16 ppb

C=CCOC(=O)CCCCC [ALLYL CAPROATE]
ODT (ppb) ([1]; Table 9): less than 50 ppb | ODT (ppb) ([1]; Table 11): less than 50 ppb | ODT (ppb) ([1]; Table 13): less than 50 ppb
